Measurements taken from patent US20080138280A1, “Composition and Methods For Inhibiting Cell Survival” (The Cleveland Clinic Foundation, priority 2003, published 2008).

Legend:
[1] = system: NF-κB DNA binding activity; test: Electrophoretic mobility shift assay (EMSA) of NF-κB DNA binding activity, A375 cells; type: cell-based, human
Experimental: Electrophoretic mobility shift assay (EMSA). These methods apply generally to FIGS. 5, 9-10 which employ EMSA analysis. In FIG. 5, A375 cells were treated with NO donors (NO-Cbl, NOC-18, SNAP, 100 μM, 16 h), or with Apo2L/TRAIL (100 ng/ml) or TNF-α (20 ng/ml) for 1 h, or with the combination of NO donors (16 h) followed by Apo2L/TRAIL or TNF-α (1 h). Plates were washed twice with ice-cold PBS. Cells were resuspended in cold 1× lysis buffer (20 mM HEPES, 20 mM NaF, 1 mM Na3VO4, 1 mM EDTA, 1 mM DTT, 100 mM NaCl, 10% glycerol and protease inhibitors) and incubated on ice for 30 min followed by centrifugation at 4° C. at 10,000 rpm for 10 min. Supernatants were transferred to fresh tubes and protein concentrations were assessed using the Bradford method (Bio-RAD protein assay, BioRad, Hercules, Calif.). The NF-κB consensus binding sequence (5′[…] 3′) from the IFN-β gene promoter was end-labeled with γ^32P dATP ([…]) using T4 polynucleotide kinase. DNA binding reactions were performed in 20 μl volume containing 10 μg protein, 20 mM HEPES, 10 mM KCl, 0.1% NP-40, 0.5 mM DIT and 10% glycerol. The binding reaction was performed for 20 min at 25° C. Complexes were separated from the free probe on 6% non-denaturing polyacrylamide gels in 0.5×TBE buffer at 200 V for 2 h. Gels were dried and exposed to film.
Inhibition of NF-κB survival signaling by NO-Cbl. Because NF-κB is an important cell survival regulator, we examined the effects of NO-Cbl on NF-κB DNA binding activity. The NF-κB binding sequence from the IFN-β gene promoter was used as a probe to assess DNA binding activity. A375 cells were treated with TNF-α (20 ng/ml), Apo2L/TRAIL (100 ng/ml) or NO-Cbl (100 μM). FIG. 5, illustrates an Electrophoretic Mobility Shift Assay (EMSA) of NF-κB DNA binding activity. Pre-treatment of A375 cells with NO-Cbl inhibited the NF-κB DNA binding activity induced by Apo2L/TRAIL and TNF-α. […] NF-κB-luc transfected A375 cells were pre-treated with NO-Cbl followed by Apo2L/TRAIL or TNF-α. […] Cell lysates were analyzed for NF-κB-luc reporter activity. […]

IκB kinase (IKK) = IκB kinase (IKK) activity assay with GST-IκBα-(1-54) and [γ32P]ATP; type: cell-based, human; settings: A375 pretreated with NO-Cbl
Experimental: FIG. 8 illustrates the assessment of IκB kinase (IKK) activity using recombinant GST-IκBα-(1-54) and [γ^32P]ATP as substrates. The phosphorylated GST fusion protein was detected by autoradiography. IKK activity was determined in A375 cells pretreated with NO-Cbl followed by Apo2L/TRAIL or TNF-α stimulation for 30 minutes and 15 minutes, respectively. […] Anti-β-actin antibody served as the irrelevant antibody with no phosphorylation of GST-IκBα-(1-54) observed.

NIH-OVCAR-3 cells = test: Colony formation after gamma irradiation; type: cell-based; settings: NO-Cbl 50 μM 16 hours, then 1, 2 and 4 Gy; colonies after 23 days
Experimental: FIG. 7 illustrates that NO-Cbl sensitizes NIH-OVCAR-3 cells to gamma irradiation. NIH-OVCAR-3 cells were pre-treated with NO-Cbl (50 μM) for 16 hours. Cells were then washed and irradiated with 1, 2, and 4 Gy from a Cesium source. Cells were plated in 100 mm dishes and allowed to form colonies. Plates were examined after 23 days and colony number was determined by automated counting of stained colonies. Data is expressed as percent control colony forming units (CFU).

A375 melanoma xenografts = test: Growth of subcutaneous A375 xenografts in nude mice; type: in vivo
Description: In vivo experiments. Please see FIG. 2. The Institutional Animal Care and Use Committee at the Cleveland Clinic Foundation approved all procedures for animal experimentation. Five week-old NCR male athymic nude homozygous (nu/nu) mice (Taconic, Germantown, N.Y.) were inoculated with A375 tumors. Each experimental group contained 4 mice, each mouse bearing two tumors, on opposite flanks. There were four experimental groups (untreated, single agents, and the combination). Cultured tumor cells (4×10^6) were inoculated into flanks in the mid-axillary line. NO-Cbl was given twice daily (50 mg/kg s.c.) and recombinant trimeric Apo2L/TRAIL (50 mg/kg s.c.) was administered every other day, starting on day 2. Tumor volume was measured three times a week using the formula for a prolate spheroid: (4/3) πab^2 where 2a=major axis, 2b=minor axis. Formalin-fixed sections were processed by the Cleveland Clinic Histology Core. Sections were stained with hematoxylin and eosin and evaluated for pathologic changes in a blinded fashion.
Anti-tumor effects of NO-Cbl, Apo2L/TRAIL, and the combination in vivo. To test drug activity in vivo, subcutaneous A375 xenografts were inoculated in nude mice. FIG. 2. illustrates the effect of NO-Cbl, Apo2L/TRAIL and the combination on the growth of A375 melanoma xenografts. NCR male athymic nude (nulnu) mice (n=4 per group) were injected subcutaneously with 4×10^6 A375 cells. Drug treatments began on day two (2) after injection of tumor cells. NO-Cbl was administered twice daily for the duration of the study. Apo2L/TRAIL was administered every other day. The control mice received phosphate buffered saline. The tumor volume was measured three times per week. Data points represent the mean tumor volume (in cubic mm)±SEM. Daily drug treatments began on day 2 following implantation, at which time tumors were both visible and palpable. Untreated control tumors grew unimpeded. After 25 days, the tumors from mice treated with NO-Cbl were 67.4% smaller than the control tumors (p≦0.0002) and tumors from mice treated with Apo2L/TRAIL were 89.4% smaller than the control tumors (p≦0.00001). The tumors from mice treated with the combination of NO-Cbl and Apo2L/TRAIL were 95.7% smaller than the control tumors (p≦0.000005).

IKK activity stimulated with Apo2L/TRAIL (IκB kinase (IKK); Apo2L/TRAIL 30 minutes): inhibited | IKK activity stimulated with TNF-α (IκB kinase (IKK); TNF-α 15 minutes): inhibited
Substance: nitrosylcobalamin [NO-Cbl]
NF-κB DNA binding activity induced by Apo2L/TRAIL ([1]; NO donor 100 μM pre-treatment 16 h, Apo2L/TRAIL 100 ng/ml 1 h): inhibited | NF-κB DNA binding activity induced by TNF-α ([1]; NO-Cbl 100 μM pre-treatment 16 h, TNF-α 20 ng/ml 1 h): inhibited | sensitization to gamma irradiation (colony forming units) (NIH-OVCAR-3 cells): sensitizes | tumor regression (A375 melanoma xenografts; A375 xenografts, nude mice): Tumor regression was observed | tumors smaller than the control tumors (A375 melanoma xenografts; after 25 days, NO-Cbl 50 mg/kg s.c. twice daily, Apo2L/TRAIL 50 mg/kg s.c. every other day, from day 2): 67.4%
